Blank lines part the entries; values can stand above or below the compound they belong to.
Assays:
Assay type in all cases: cell-based
[1] = tested on: endogenous F9 cell RAR; test: CAT assay: reporter plasmid only transfected into F9 cells (endogenous RAR); conditions: for induction of CAT activity: G17-2 construct alone
Source text: Two different TREs, one the natural myosin heavy chain (MHC) promoter TRE, Izumo, S., et al., Nature, 334, 539 (1988), and the other a synthetic TRE—G17-2—derived from the rat growth hormone promoter, Glass, C. K., et al., Cell, 54, 313-323 (1988), were chosen, both references are incorporated herein by reference. The estrogen responsive element (ERE) used here is derived from the vitellogenin gene, Klein-Hitpass, L., et al., Cell 46, 1053-1061 (1986). As a convenient assay system a cotransfection CAT assay (chloramphenicol transacetylase) was chosen. When. […] Upon induction, MHC and G17-2-TRE constructs yield very similar levels of CAT activity. However, the MHC-TRE-CAT gene is highly constitutive (high basal level activity) whereas the G17-2 construct functions as an ideal RA inducible gene in that we observe a low basal activity and a more than 30 fold induction of CAT activity by RA (FIG. 6a and b). Similar levels of induction were obtained with TRα. F9 cells have been established as a cellular model for RA dependent differentiation and to contain RAR transcripts. Whether the endogenous F9 RAR can also activate the TRE-CAT genes, by transfecting the […] into F9 cells alone was investigated. […] The high basal level observed with the MHC construct prevents observation of a clear induction effect by the endogenous RAR. […]
F9 cells were cotransfected with 5 μg of the expression vectors PECE-RARε or PECE-TRα and 20 μg of the reporter plasmids G17-2 CAT or MHC-CAT. […] Fold activation is expressed as the ratio of relative CAT activity after hormone induction to relative CAT activity without hormone induction. […]
2×10^6 F9 cells were cultured as monolayer on gelatin-coated dishes in alpha-MEM (GIBCO, Santa Clara, Calif.), supplemented by 20% fetal calf serum (FCS), glutamine: and nucleosides as described in Grover, A., et al., J. Cell Biol. 96, […] (1983) which is incorporated herein by reference. […] For accurate determinations of chloramphenicol acetylation, the separated reaction products were cut out from silica plates and quantified in a scintillation counter. […]

[2] = tested on: TR and RAR (RARε plus TRα or TRβ); test: Cotransfection CAT assay: TR and RARε together with TRE-CAT gene (G17-2 CAT) in F9 and CV-1 cells; conditions: only T3 added, TR and RAR cotransfected
Experimental: One possible implication of this finding is that certain genes should be inducible by either hormone (T3) or vitamin (RA) in cells containing both receptors. To zest this hypothesis and to investigate possible positive and/or negative interactions of TR and RAR, both receptors were cotransfected into the same cells together with a TRE-CAT gene. […] Approximately 70% of the maximal activity is observed when only T3 is added. […] In the absence of T3, TR prevents activation of TREs by RARs, while in the presence of T3, TR activates and also allows positive cooperativity with RAR. The dominating regulatory effect can be carried out by both TRα and TRβ on both the RARε (FIG. 9) and the F9 endogenous RAR. Significant repression of RARε activity in F9 cells is observed between RARε: TRα ratios of 1:1 to 4:1.
As shown in FIG. 9(a), 5 μg of PECE-RARε plus 5 μg of PECE-TRα were cotransfected together with 20 μg of G17-2 CAT into F9 cells. As a control, each receptor was also cotransfected with G17-2 CAT individually. Hormones were added as indicated. As shown in FIG. 9(b), 2.5 μg of PECE-TRβ plus 2.5 μg of PECE-RARε were cotransfected with 20 μg of G17-2 CAT into CV-1 cells. As a control, PECE-RARε was also cotransfected with G17-2 individually. Hormones were added as indicated. CAT activity was assayed as described in Example VI.

[3] = molecular target: T1, RAER chimaeric protein (RARε with hER DNA-binding domain) (Homo sapiens, UniProt P10826, DEL77-136/INS76TNDKGSMAMESAKETRYCAVCNDYASGYHYGVWSCEGCKAFFKRSIQGHNDYMCPATNQCTIDKNRRKSCQAC); test: Co-transfection CAT assay: RAER chimaeric receptor plus ERE-CAT reporter gene in HeLa cells; conditions: only at high concentrations (3×10^−6 M)
T1 construct: a 304 bp 5′ untranslated region, the complete open reading frame, and a 55 bp 3′ untranslated region; expressed in transfected cells; host or cells: HeLa cells, PECE-RAER expression vector
T1 sequence (P10826 with tags, fused parts or gaps isoform P10826-2): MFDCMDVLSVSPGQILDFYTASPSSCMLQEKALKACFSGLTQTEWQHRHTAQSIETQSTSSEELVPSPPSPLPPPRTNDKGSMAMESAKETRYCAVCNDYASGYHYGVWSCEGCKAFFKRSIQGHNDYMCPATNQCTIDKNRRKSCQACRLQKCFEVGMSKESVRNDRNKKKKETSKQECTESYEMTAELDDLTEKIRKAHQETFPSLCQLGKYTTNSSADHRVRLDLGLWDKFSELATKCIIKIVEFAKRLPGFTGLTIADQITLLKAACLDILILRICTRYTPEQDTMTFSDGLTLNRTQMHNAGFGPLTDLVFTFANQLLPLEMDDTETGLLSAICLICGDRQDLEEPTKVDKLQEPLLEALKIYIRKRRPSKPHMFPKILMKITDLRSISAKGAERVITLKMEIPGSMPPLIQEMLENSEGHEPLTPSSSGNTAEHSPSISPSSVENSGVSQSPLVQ
Experimental: The hybrid receptor was then transfected into susceptible tissue-culture cells together with a reporter gene containing the relevant HRE. The effect of various potential activators of the novel receptor was measured from cells transiently transfected with both genes and grown in the presence and absence of the various ligands.
As a control, cells were treated with calcium phosphate or were transfected with the constitutive pSV2CAT vector. As further controls, cells were also transfected with ERE-CAT and ERE-CAT plus the oestrogen receptor (ER) expression vector pckR2ER and grown in the presence of Est.
After 5 hours, cells were shocked with 10% glycerol for 2 min. Eighteen hours after the start of transfection, steroid hormones or retinoids were added to the medium and cells were incubated for a further 24 hours before harvesting.

SMILES: N[C@@H](Cc1cc(I)c(Oc2ccc(O)c(I)c2)c(I)c1)C(=O)O [T3]
- induction of CAT activity ([1]; F9 cells, in the presence of T3): no induction
- CAT activity, percent of the maximal activity [2]: Approximately 70%

- induction of CAT gene expression [3]: some inducing effect
SMILES: CC1=C(/C=C/C(C)=C/C=C/C(C)=C/C=O)C(C)(C)CCC1 [retinal]

SMILES: CC1=C(/C=C/C(C)=C/C=C/C(C)=C/C(=O)O)C(C)(C)CCC1 [retinoic acid]
- induction of CAT activity ([1]; endogenous F9 RAR, in the presence of RA): 12 fold
- RA concentration at which TRE dependent CAT activity can be induced ([1]; G17-2 construct, F9 RAR, RA tested between 3×10^−11 and 10^−6 M): ~0.1 nM

- induction of CAT gene expression [3]: some inducing effect
SMILES: CC1=C(/C=C/C(C)=C/C=C/C(C)=C/CO)C(C)(C)CCC1 [retinol]

Source: US6335159B1 (The Burnham Institute, priority 1988, dated 2002)
